The text below walks through data of ChEMBL document CHEMBL5360532, “Current scenario of quinolone hybrids with potential antibacterial activity against ESKAPE pathogens” (Eur J Med Chem, 2023).

Test [1] deals with Escherichia coli. Put plainly: Antibacterial activity against Escherichia coli ATCC 8739 assessed as bacterial growth inhibition by agar dilution method. The format is functional. (In agar dilution, organisms are placed on agar that contains the substance at set levels.)
For test [2], the system named is Klebsiella pneumoniae. Kind of test: Antibacterial activity against Klebsiella pneumoniae ATCC 10031 assessed as bacterial growth inhibition by agar dilution method. In kind it is functional.
The subject of the next test is Enterobacter cloacae. Kind of test: Antibacterial activity against Enterobacter cloacae PTCC 1003 assessed as bacterial growth inhibition by agar dilution method. The format is functional.
The subject of test [3] is Staphylococcus aureus. Put plainly: Antibacterial activity against clinical isolate methicillin resistant Staphylococcus aureus assessed as bacterial growth inhibition by microdilution assay. The format is functional. For orientation: Broth dilution looks for growth in wells or tubes with falling amounts of substance.
The test system of test [4] is Staphylococcus aureus. Kind of test: Antibacterial activity against Staphylococcus aureus ATCC 25923 assessed as bacterial growth inhibition by microdilution assay. The format is functional.
Test [5] concerns Klebsiella pneumoniae. Put plainly: Antibacterial activity against Klebsiella pneumoniae assessed as bacterial growth inhibition by agar streak dilution assay. The format is functional.
Test [6] deals with Escherichia coli. Kind of test: Antibacterial activity against Escherichia coli assessed as bacterial growth inhibition by agar streak dilution assay. In kind it is functional.
The subject of test [7] is Staphylococcus aureus. Kind of test: Antibacterial activity against Staphylococcus aureus assessed as bacterial growth inhibition by agar streak dilution assay. The format is functional.
In test [8] the test system is Escherichia coli. Put plainly: Antibacterial activity against Escherichia coli assessed as bacterial growth inhibition by agar cup diffusion assay. The format is functional.
A further test concerns Aspergillus fumigatus. Kind of test: Antifungal activity against Aspergillus fumigatus assessed as fungal growth inhibition by agar cup diffusion assay. The format is functional.
The test system of another test is Aspergillus niger. Kind of test: Antifungal activity against Aspergillus niger assessed as fungal growth inhibition by agar cup diffusion assay. The format is functional.
Test [9] deals with Pseudomonas aeruginosa. Kind of test: Antibacterial activity against Pseudomonas aeruginosa assessed as bacterial growth inhibition by agar cup diffusion assay. The format is functional.
For test [10], the system named is Staphylococcus aureus. Kind of test: Antibacterial activity against Staphylococcus aureus assessed as bacterial growth inhibition by agar cup diffusion assay. The format is functional.
Test [11] deals with Staphylococcus aureus. Put plainly: Antibacterial activity against methicillin resistant Staphylococcus aureus assessed as bacterial growth inhibition by agar cup diffusion assay. The format is functional.
Test [12] has as its system Klebsiella pneumoniae. Put plainly: Antibacterial activity against Klebsiella pneumoniae AUMC B-77 assessed as bacterial growth inhibition by agar cup diffusion method. The format is functional.
In the next test the test system is WRL68. Kind of test: Anticancer activity against human WRL68 cell assessed as cell growth inhibition measured after 24 to 72 hrs by MTT assay. In kind it is functional, cell-based. A general note: Formazan colour is commonly taken as a measure of viable cells.
A further test concerns HT-29. Kind of test: Anticancer activity against human HT-29 cell assessed as cell growth inhibition measured after 24 to 72 hrs by MTT assay. The format is functional, cell-based.
Test [13] can be described thus: Anticancer activity against EAC cell assessed as cell growth inhibition measured after 24 to 72 hrs by MTT assay. The format is functional, cell-based. Particulars: Ehrlich.
In test [14] the test system is Mycobacterium tuberculosis. Put plainly: Antimycobacterial activity against Mycobacterium tuberculosis H37Rv assessed as bacterial growth inhibition by broth microdilution assay. The format is functional.
The test system of test [15] is Pseudomonas aeruginosa. Put plainly: Antibacterial activity against Pseudomonas aeruginosa ATCC 27853 assessed as bacterial growth inhibition by agar dilution assay. The format is functional.
The test system of test [16] is Pseudomonas aeruginosa. Put plainly: Antibacterial activity against Pseudomonas aeruginosa assessed as bacterial growth inhibition by broth microdilution assay. In kind it is functional.
Test [17] deals with Staphylococcus aureus. Kind of test: Antibacterial activity against Staphylococcus aureus assessed as bacterial growth inhibition by broth microdilution assay. In kind it is functional.
In test [18] the test system is Escherichia coli. Kind of test: Antibacterial activity against Escherichia coli assessed as bacterial growth inhibition by broth microdilution assay. In kind it is functional.
In a further test the test system is Acinetobacter baumannii. Kind of test: Antibacterial activity against Acinetobacter baumannii assessed as bacterial growth inhibition by agar dilution assay. The format is functional.
The test system of test [19] is Staphylococcus aureus. Put plainly: Antibacterial activity against Staphylococcus aureus ATCC 6538P assessed as bacterial growth inhibition by two fold microdilution assay. In kind it is functional.
In test [20] the test system is Staphylococcus aureus. Kind of test: Antibacterial activity against methicillin resistant Staphylococcus aureus assessed as bacterial growth inhibition by agar dilution assay. The format is functional.
In test [21] the test system is Klebsiella pneumoniae. Kind of test: Antibacterial activity against Klebsiella pneumoniae assessed as bacterial growth inhibition by two fold microdilution assay. In kind it is functional.
Test [22] has as its system Staphylococcus aureus. Put plainly: Antibacterial activity against Staphylococcus aureus assessed as bacterial growth inhibition by agar dilution assay. The format is functional.
Test [23] has as its system Escherichia coli. Put plainly: Antibacterial activity against Escherichia coli ATCC 8739 assessed as bacterial growth inhibition by two fold microdilution assay. In kind it is functional.

As usually defined, the MIC is the lowest concentration that inhibits growth of the organism. In general, IC50 refers to the concentration needed to halve the response being measured.

≈ marks a conversion by molar mass, not a printed value.

Turning to `CC(=O)C(C(C)=O)C(=O)c1cn(C2CC2)c2cc(N3CCN(/N=N/c4nc(C)cc(C)n4)CC3)c(F)cc2c1=O`, the MIC with Escherichia coli [1], in the test with Klebsiella pneumoniae [2] and with Enterobacter cloacae was 0.015 µg/mL (≈ 0.0274 µM) in each case.
As to `COc1c(N2C[C@H]3CCCN(S(=O)(=O)c4ccc(F)cc4)[C@H]3C2)c(F)cc2c(=O)c(C(=O)O)cn(C3CC3)c12`, the MIC with Staphylococcus aureus [3] and in the test with Staphylococcus aureus [4] was < 2.64 µg/mL in each case.
Turning to `COc1ccc(S(=O)(=O)N2CCC[C@@H]3CN(c4c(F)cc5c(=O)c(C(=O)O)cn(C6CC6)c5c4OC)C[C@@H]32)cc1`, the MIC with Staphylococcus aureus [3] and in the test on Staphylococcus aureus [4] was < 2.64 µg/mL throughout.
For the molecule `COc1c(N2C[C@H]3CCCN(S(=O)(=O)c4ccc(Cl)cc4)[C@H]3C2)c(F)cc2c(=O)c(C(=O)O)cn(C3CC3)c12`, the MIC in the test on Staphylococcus aureus [3] and in the test on Staphylococcus aureus [4] was < 2.64 µg/mL each time.
As to `COc1c(N2CCN([S+]([O-])c3ccc(N)c(C)c3)C(C)C2)c(F)c(C)c2c(=O)c(C(=O)O)cn(C3CC3)c12` (configuration not stated), the MIC in the test on Klebsiella pneumoniae [5], in the test with Escherichia coli [6] and in the test on Staphylococcus aureus [7] was 0.9 µg/mL (≈ 1.66 µM) each time.
On to `CNc1ccc([S+]([O-])N2CCN(c3c(F)c(C)c4c(=O)c(C(=O)O)cn(C5CC5)c4c3OC)CC2C)cc1C` (configuration not stated), for which the MIC with Klebsiella pneumoniae [5], with Escherichia coli [6] and in the test on Staphylococcus aureus [7] was 0.9 µg/mL (≈ 1.62 µM) each time.
`Nc1ccc(-c2nnc(-c3cn(C4CC4)c4cc(N5CCNCC5)c(F)cc4c3=O)o2)c(O)c1`: the MIC in the test on Escherichia coli [8] amounted to 0.3 µg/mL (≈ 0.649 µM); with Aspergillus fumigatus, 9.8 µg/mL (≈ 21.2 µM); with Aspergillus niger, 9.8 µg/mL (≈ 21.2 µM); in the test on Pseudomonas aeruginosa [9], 0.3 µg/mL (≈ 0.649 µM).
Take `O=C(O)c1cn(C2CC2)c2cc(N3CCN(C(=O)CN4C(=O)S/C(=C\c5ccco5)C4=O)CC3)c(F)cc2c1=O`: the MIC with Staphylococcus aureus [10] was 5 ng/mL (≈ 0.00883 µM); in the test with Staphylococcus aureus [11], 0.22 µg/mL (≈ 0.388 µM).
In the case of `O=C(O)c1cn(C2CC2)c2cc(N3CCN(C(=O)CN4C(=O)S/C(=C\c5ccccc5)C4=O)CC3)c(F)cc2c1=O`, the MIC turned out to be 5 ng/mL (≈ 0.00867 µM) in the test on Staphylococcus aureus [10] and 0.02 µg/mL (≈ 0.0347 µM) with Staphylococcus aureus [11].
`CCn1cc(C(=O)O)c(=O)c2cc(F)c(N3CCN(CC(=O)Nc4ccc(/C(C)=N/O)cc4)CC3)cc21`: the MIC with Klebsiella pneumoniae [12] was determined as 0.08 µg/mL (≈ 0.157 µM).
`Nc1ccc(-c2nnc(-c3cn(C4CC4)c4cc(C(=O)c5ncc[nH]5)c(F)cc4c3=O)o2)c(O)c1`: the MIC in the test on Escherichia coli [8] was determined as 0.2 µg/mL (≈ 0.423 µM); in the test on Aspergillus fumigatus, 9.8 µg/mL (≈ 20.7 µM); in the test with Aspergillus niger, 9.8 µg/mL (≈ 20.7 µM); in the test with Pseudomonas aeruginosa [9], 0.2 µg/mL (≈ 0.423 µM).
As to `COc1cccc2c1C(=O)c1c(O)c3c(c(O)c1C2=O)C[C@@](O)(C(=O)CO)C[C@@H]3O[C@H]1C[C@H](N)[C@H](O)[C@H](C)O1` [DOXORUBICIN], the IC50 (with WRL68; with HT-29; in [13]) was 259 nM throughout.
For `Cc1c(F)c(N2CCNC(C)C2)cc2c1c(=O)c(C(=O)O)cn2C1CC1` (configuration not stated) [GREPAFLOXACIN], the MIC in the test on Klebsiella pneumoniae [5], in the test with Escherichia coli [6] and in the test with Staphylococcus aureus [7] was 0.5 µg/mL (≈ 1.39 µM) each time.
Take `NNC(=O)c1ccncc1` [ISONIAZID]: the MIC in test [14] turned out to be 1.5 µg/mL (≈ 10.9 µM).
For `CCn1cc(C(=O)O)c(=O)c2cc(F)c(N3CCNCC3)cc21` [NORFLOXACIN], the MIC with Pseudomonas aeruginosa [15] is ≥ 4 µg/mL; in the test on Pseudomonas aeruginosa [16], ≤ 0.125 µg/mL; in the test on Staphylococcus aureus [17], ≤ 0.125 µg/mL; in the test with Escherichia coli [18], ≤ 0.125 µg/mL; in the test on Klebsiella pneumoniae [12], 0.5 µg/mL (≈ 1.57 µM); in the test on Acinetobacter baumannii, ≥ 4 µg/mL. In addition, the MIC in the test with Staphylococcus aureus [19] was ≤ 0.125 µg/mL; in the test with Staphylococcus aureus [20] it was ≥ 4 µg/mL; in the test on Klebsiella pneumoniae [21] it was ≤ 0.125 µg/mL; with Staphylococcus aureus [22], ≥ 4 µg/mL; in the test on Escherichia coli [23] it was ≤ 0.125 µg/mL.
In the case of `CO[C@H]1/C=C/O[C@@]2(C)Oc3c(C)c(O)c4c(O)c(c(/C=N/N5CCN(C)CC5)c(O)c4c3C2=O)NC(=O)/C(C)=C\C=C\[C@H](C)[C@H](O)[C@@H](C)[C@@H](O)[C@@H](C)[C@H](OC(C)=O)[C@@H]1C` [RIFAMPIN], in [14], the MIC came out at 1 µg/mL (≈ 1.22 µM).
